Assay results from PubChem BioAssay (NCI).
Where “and” joins values, the source holds several entries; their conditions need not be identical. Identical values can stand only once.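 Briefly, cells in 96-well plates were exposed to five compound concentrations for 48 h, and endpoints were estimated by linear interpolation. Here, GI50 denotes the concentration required for 50% inhibition of growth. The concentration for full growth arrest is given as TGI.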

Legend:
Experiment in all cases: growth of human tumour cells (NCI), 48 h
786-0 renal = tested on: 786-0 renal
LOX IMVI melanoma = tested on: LOX IMVI melanoma
NCI-H23 lung = tested on: NCI-H23 lung
UACC-257 melanoma = tested on: UACC-257 melanoma
CAKI-1 renal = tested on: CAKI-1 renal
K-562 leukemia = tested on: K-562 leukemia
SK-MEL-28 melanoma = tested on: SK-MEL-28 melanoma
HCT-15 colon = tested on: HCT-15 colon
RXF 393 renal = tested on: RXF 393 renal
IGROV1 ovarian = tested on: IGROV1 ovarian
M19-MEL melanoma = tested on: M19-MEL melanoma
SN12C renal = tested on: SN12C renal
NCI-H522 lung = tested on: NCI-H522 lung
SNB-75 CNS = tested on: SNB-75 CNS
OVCAR-5 ovarian = tested on: OVCAR-5 ovarian
EKVX NSCLC = tested on: EKVX NSCLC
OVCAR-3 ovarian = tested on: OVCAR-3 ovarian
SK-MEL-5 melanoma = tested on: SK-MEL-5 melanoma
OVCAR-8 ovarian = tested on: OVCAR-8 ovarian
HOP-18 NSCLC = tested on: HOP-18 NSCLC
SK-MEL-2 melanoma = tested on: SK-MEL-2 melanoma
COLO 205 colon = tested on: COLO 205 colon
HOP-92 NSCLC = tested on: HOP-92 NSCLC
NCI-H460 lung = tested on: NCI-H460 lung
MALME-3M melanoma = tested on: MALME-3M melanoma
M14 melanoma = tested on: M14 melanoma
HOP-62 NSCLC = tested on: HOP-62 NSCLC
LXFL 529 NSCLC = tested on: LXFL 529 NSCLC
SF-539 CNS = tested on: SF-539 CNS
A549 NSCLC = tested on: A549 NSCLC
UO-31 renal = tested on: UO-31 renal
HCT-116 colon = tested on: HCT-116 colon
ACHN renal = tested on: ACHN renal
HL-60(TB) leukemia = tested on: HL-60(TB) leukemia
NCI-H226 lung = tested on: NCI-H226 lung
OVCAR-4 ovarian = tested on: OVCAR-4 ovarian
RPMI-8226 leukemia = tested on: RPMI-8226 leukemia
KM20L2 colon = tested on: KM20L2 colon
U251 CNS = tested on: U251 CNS
DMS 114 small cell lung = tested on: DMS 114 small cell lung
HT29 colon = tested on: HT29 colon
CCRF-CEM leukemia = tested on: CCRF-CEM leukemia
HCC-2998 colon = tested on: HCC-2998 colon
MOLT-4 leukemia = tested on: MOLT-4 leukemia
KM12 colon = tested on: KM12 colon
SNB-19 CNS = tested on: SNB-19 CNS
SF-295 CNS = tested on: SF-295 CNS
TK-10 renal = tested on: TK-10 renal
DLD-1 colon = tested on: DLD-1 colon
SR leukemia = tested on: SR leukemia
SF-268 CNS = tested on: SF-268 CNS
RXF-631 renal = tested on: RXF-631 renal
SNB-78 CNS = tested on: SNB-78 CNS
SW-620 colon = tested on: SW-620 colon
MDA-MB-435 = tested on: MDA-MB-435
MCF7 breast = tested on: MCF7 breast
SK-OV-3 ovarian = tested on: SK-OV-3 ovarian
UACC-62 melanoma = tested on: UACC-62 melanoma
MDA-MB-231 breast = tested on: MDA-MB-231 breast
PC-3 prostate = tested on: PC-3 prostate
MDA-N = tested on: MDA-N
A498 renal = tested on: A498 renal

## CCOc1cc2c[n+](C)c3c4cc(OC)c(OC)cc4ccc3c2cc1OC
786-0 renal
  TGI: 35.1 µM
LOX IMVI melanoma
  TGI: > 100 µM
NCI-H23 lung
  TGI: > 100 µM
UACC-257 melanoma
  TGI: > 100 µM
CAKI-1 renal
  TGI: > 100 µM
K-562 leukemia
  TGI: > 100 µM
SK-MEL-28 melanoma
  TGI: > 100 µM
HCT-15 colon
  TGI: > 100 µM
RXF 393 renal
  TGI: > 100 µM
IGROV1 ovarian
  TGI: > 100 µM
M19-MEL melanoma
  TGI: > 100 µM
SN12C renal
  TGI: > 100 µM
NCI-H522 lung
  TGI: > 100 µM
SNB-75 CNS
  TGI: > 100 µM
OVCAR-5 ovarian
  TGI: > 100 µM
EKVX NSCLC
  TGI: > 100 µM
OVCAR-3 ovarian
  TGI: > 100 µM
SK-MEL-5 melanoma
  TGI: > 100 µM
OVCAR-8 ovarian
  TGI: 32.2 µM
HOP-18 NSCLC
  TGI: > 100 µM
SK-MEL-2 melanoma
  TGI: > 100 µM
COLO 205 colon
  TGI: > 100 µM
HOP-92 NSCLC
  TGI: > 100 µM
NCI-H460 lung
  TGI: > 100 µM
MALME-3M melanoma
  TGI: > 100 µM
M14 melanoma
  TGI: > 100 µM
HOP-62 NSCLC
  TGI: > 100 µM
LXFL 529 NSCLC
  TGI: > 100 µM
SF-539 CNS
  TGI: > 100 µM
A549 NSCLC
  TGI: > 100 µM
UO-31 renal
  TGI: > 100 µM
HCT-116 colon
  TGI: > 100 µM
ACHN renal
  TGI: > 100 µM
HL-60(TB) leukemia
  TGI: > 100 µM
NCI-H226 lung
  TGI: > 100 µM
OVCAR-4 ovarian
  TGI: > 100 µM
RPMI-8226 leukemia
  TGI: > 100 µM
KM20L2 colon
  TGI: > 100 µM
U251 CNS
  TGI: > 100 µM
DMS 114 small cell lung
  TGI: > 100 µM
HT29 colon
  TGI: > 100 µM
CCRF-CEM leukemia
  TGI: > 100 µM
HCC-2998 colon
  TGI: > 100 µM
MOLT-4 leukemia
  TGI: > 100 µM
KM12 colon
  TGI: > 100 µM
SNB-19 CNS
  TGI: > 100 µM
SF-295 CNS
  TGI: > 100 µM
TK-10 renal
  TGI: > 100 µM
DLD-1 colon
  TGI: > 100 µM
SR leukemia
  TGI: > 100 µM
SF-268 CNS
  TGI: > 100 µM
RXF-631 renal
  TGI: 40.1 µM
SNB-78 CNS
  TGI: > 100 µM
SW-620 colon
  TGI: > 100 µM

## CN1CCN(CCn2c3c4ccccc4ccc3c3oc(=O)c4ccccc4c32)CC1
786-0 renal
  GI50: 1.96 µM
  TGI: 3.76 µM and 4.07 µM
LOX IMVI melanoma
  GI50: 1.61 µM and 4.84 µM
NCI-H23 lung
  GI50: 1.92 µM
  TGI: 3.72 µM and 15.7 µM
UACC-257 melanoma
  GI50: > 1 µM
  TGI: > 1 µM and 2.96 µM
CAKI-1 renal
  TGI: 16.7 µM
K-562 leukemia
  TGI: 2.89 µM and 4.29 µM
SK-MEL-28 melanoma
  GI50: 1.99 µM
  TGI: 3.47 µM and 9.37 µM
HCT-15 colon
  GI50: 1.61 µM
  TGI: 3.21 µM and 7.92 µM
RXF 393 renal
  GI50: 5.75 µM
  TGI: > 1 µM and 19.9 µM
IGROV1 ovarian
  GI50: > 1 µM
  TGI: > 1 µM and 31.1 µM
M19-MEL melanoma
  TGI: 24.7 µM
SN12C renal
  GI50: 4.44 µM
  TGI: 3.05 µM
NCI-H522 lung
  GI50: 1.68 µM
  TGI: 3.29 µM and 10.4 µM
SNB-75 CNS
  TGI: 16.6 µM
OVCAR-5 ovarian
  TGI: 10.4 µM
EKVX NSCLC
  TGI: 25.5 µM
OVCAR-3 ovarian
  TGI: 23.7 µM
SK-MEL-5 melanoma
  TGI: 3.41 µM
OVCAR-8 ovarian
  GI50: 2.32 µM
  TGI: 5.13 µM and 3.37 µM
HOP-18 NSCLC
  TGI: 25.1 µM
SK-MEL-2 melanoma
  TGI: 27.7 µM
COLO 205 colon
  GI50: 2 µM
  TGI: 3.4 µM and 5.14 µM
HOP-92 NSCLC
  GI50: 3.44 µM
  TGI: 17 µM
NCI-H460 lung
  GI50: 1.46 µM
  TGI: 4.09 µM and 2.95 µM
MALME-3M melanoma
  TGI: 29.3 µM
M14 melanoma
  GI50: 1.94 µM
  TGI: 3.43 µM and 3.29 µM
HOP-62 NSCLC
  GI50: 10.1 µM
  TGI: 4.65 µM and 23.7 µM
LXFL 529 NSCLC
  TGI: 8.07 µM
MDA-MB-435
  TGI: 3.35 µM
MCF7 breast
  TGI: 3.03 µM
SF-539 CNS
  TGI: 3.47 µM and 3.08 µM
A549 NSCLC
  GI50: 2.91 µM
  TGI: 8.92 µM and 8.94 µM
UO-31 renal
  GI50: 3.08 µM
  TGI: 11.9 µM
HCT-116 colon
  GI50: 1.55 µM
  TGI: 2.88 µM and 3.79 µM
ACHN renal
  TGI: 7.42 µM
SK-OV-3 ovarian
  TGI: 27.4 µM
HL-60(TB) leukemia
  TGI: 3.47 µM
NCI-H226 lung
  TGI: 33.5 µM
OVCAR-4 ovarian
  TGI: 6.85 µM
UACC-62 melanoma
  GI50: 2.14 µM
  TGI: 4.74 µM and 5.11 µM
RPMI-8226 leukemia
  GI50: 1.84 µM
  TGI: 3.79 µM and 15 µM
KM20L2 colon
  TGI: 7.79 µM
U251 CNS
  TGI: 6.25 µM and 6.92 µM
DMS 114 small cell lung
  TGI: 3.84 µM
MDA-MB-231 breast
  TGI: 3.59 µM
HT29 colon
  GI50: 1.65 µM
  TGI: 3.3 µM and 2.71 µM
CCRF-CEM leukemia
  TGI: 3.2 µM and 3.94 µM
HCC-2998 colon
  GI50: 4.22 µM
  TGI: 3.74 µM and 18.7 µM
MOLT-4 leukemia
  TGI: 3.2 µM and 4.38 µM
PC-3 prostate
  TGI: 4.59 µM
KM12 colon
  GI50: 2.13 µM
  TGI: 4.54 µM and 6.56 µM
SNB-19 CNS
  GI50: 1.5 µM
  TGI: 7.24 µM and 10.9 µM
SF-295 CNS
  GI50: 1.88 µM
  TGI: 4.5 µM and 9.45 µM
TK-10 renal
  TGI: 22.5 µM
DLD-1 colon
  TGI: 6.13 µM
SR leukemia
  TGI: 3.13 µM
MDA-N
  TGI: 2.95 µM
A498 renal
  GI50: 18.7 µM
  TGI: 38.3 µM
SF-268 CNS
  GI50: 5.03 µM
  TGI: 14 µM
RXF-631 renal
  TGI: 17.8 µM
SNB-78 CNS
  TGI: 16.4 µM
SW-620 colon
  TGI: 4.29 µM and 5.33 µM
